Legend:
[1] = system: metritis-causing organisms; test: In vitro killing of bacteria in uterine discharge from a cow with confirmed metritis; type: cell-based
Procedure: In vitro testing: One-ml aliquots of uterine discharge from a cow with confirmed metritis were collected and diluted with 1 ml of water. The aliquots were incubated for 30 minutes at 37° C. either in the presence of 7.0% carbamide peroxide (test) or in the absence of carbamide peroxide (control). Bacteria from each treatment were washed and centrifuged, reconstituted in media, and plated on suitable culture media plates. The plates were incubated for three days. […] A similar experiment was conducted using urea in place of carbamide peroxide. The concentration of urea used was 11.3%. This is the equivalent amount of urea found in 4 urea boluses per 16 ounces of water, which is recommended for in vivo treatment using commercially available urea boluses.

[2] = system: postpartum cows with retained placenta; test: Clinical trials of intrauterine bolus in cows having retained placenta; type: in vivo; details: single bolus containing 3.5 grams carbamide peroxide inserted in the uterus
Procedure: Efficacy of carbamide peroxide administration in treating retained placenta was tested in clinical trials with cows having retained placenta. A single bolus containing 3.5 grams carbamide peroxide was inserted in the uterus of postpartum cows with retained placenta.

[3] = system: cows diagnosed with metritis; test: Clinical trials of intrauterine bolus in cows diagnosed with metritis; type: in vivo; details: single bolus containing 3.5 grams carbamide peroxide inserted in the uterus
Procedure: Efficacy of carbamide peroxide administration for treating metritis was tested in clinical trials with cows diagnosed with metritis. A single bolus containing 3.5 grams carbamide peroxide was inserted in the uterus of cows showing metritis symptoms such as foul uterine discharge. […] As no antibiotics were required in these cases, no milk had to be discarded. Because no milk was discarded, full financial benefit to the farmer was received for selling more milk than would have occurred if milk had to be discarded due to the presence of antibiotics. […] This indicates the carbamide peroxide administration is safe for use for the long term health of the cow and helps reduce subsequent reproduction failures.

[4] = system: cow diagnosed with severe metritis and vaginitis; test: Uterine flush (wash format) in a cow with severe metritis and vaginitis; type: in vivo; details: two boluses comprising 3.5 g carbamide peroxide dissolved in 1 quart of water, uterus flushed; cow 5 days after calving
Procedure: Efficacy of carbamide peroxide administration in a wash format was tested with a cow diagnosed with severe metritis and vaginitis. A cow that had calved 5 days previously presented a foul smelling uterine discharge. Upon clinical examination, it was discovered that remnants of the placenta were still in the uterus and that the animal was off feed. Antibiotics were not preferred for treatment, as sale of milk from the cow was very important. (Antibiotic residue in milk is not permitted if sale of milk is to occur.) Two boluses comprising 3.5 g carbamide peroxide were dissolved in 1 quart of water, and the uterus of the cow was flushed out with the flush. Within 24-48 hours, the uterine discharge had cleared, the cow was on feed again, and placental remnants were gone. The animal was able to be milked easier than prior to treatment, and the cow was returned to normal service in good health. As no antibiotics were used, the milk was not required to be discarded, and the owner was able to make financial gain from the sale of the milk.

Structure (SMILES): NC(N)=O.OO [carbamide peroxide]
- bacteria colonies on culture plates after treatment ([1]; 7.0% carbamide peroxide, 30 minutes at 37° C., plates incubated three days, control plates had hundreds of colonies): no colonies were found
- foul uterine discharge after treatment [2]: no foul uterine discharge
- shedding of retained placenta [2]: The next day, the retained placenta was shed naturally
- feed intake during the treatment [3]: did not go off feed
- need for follow-up with antibiotics [3]: No follow-up with antibiotics were required
- subsequent conception and calving (long-term safety) [3]: subsequently conceived safely and had healthy calves
- uterine discharge (metritis symptom) [3]: improved and reduced quickly
- time until uterine discharge had cleared, cow on feed again, placental remnants gone [4]: 24 to 48 h

Structure (SMILES): NC(N)=O [urea, reference compound]
- bacteria colonies on culture plates after treatment ([1]; 11.3% urea in place of carbamide peroxide, similar experiment): several bacterial colonies still being present

— patent US8865770B2, “Carbamide peroxide treatments for the reproductive tract” (Vets Plus, Inc., priority 2011, dated 2014)
